# Laboratory results reported in ChEMBL document CHEMBL5321213, “Nicolaioidesin C: An Antiausterity Agent Shows Promising Antitumor Activity in a Pancreatic Cancer Xenograft Mouse Model” (J Nat Prod, 2023).
# Activity calls are given as the source filed them. The calls are words filed in the database; no cut-off is given here.
# Key:
# PANC-1 [1] = assay: Preferential cytotoxicity against human PANC-1 cells in nutrient-deprived medium measured after 24 hrs by WST-8 cell counting analysis; format: functional
# MIA PaCa-2 [2] = assay: Antitumor activity against human MIA PaCa-2 cells xenografted in athymic BALB/c-nu mouse assessed as fold change in 2'-deoxycytidine level in tumor at 10 mg/kg/day, ip administered five times per week for 4 weeks by LC-MS analysis; format: functional
# MIA PaCa-2 [3] = assay: Antitumor activity against human MIA PaCa-2 cells xenografted in athymic BALB/c-nu mouse assessed as fold change in serine level in tumor at 2 mg/kg/day, ip administered five times per week for 4 weeks by LC-MS analysis; format: functional
# MIA PaCa-2 [4] = assay: Antitumor activity against human MIA PaCa-2 cells xenografted in athymic BALB/c-nu mouse assessed as fold change in leucine level in tumor at 2 mg/kg/day, ip administered five times per week for 4 weeks by LC-MS analysis; format: functional
# MIA PaCa-2 [5] = assay: Antitumor activity against human MIA PaCa-2 cells xenografted in athymic BALB/c-nu mouse assessed as fold change in 3-sulfolactic acid level in tumor at 2 mg/kg/day, ip administered five times per week for 4 weeks by LC-MS analysis; format: functional
# MIA PaCa-2 [6] = assay: Antitumor activity against human MIA PaCa-2 cells xenografted in athymic BALB/c-nu mouse assessed as fold change in methionine level in tumor at 10 mg/kg/day, ip administered five times per week for 4 weeks by LC-MS analysis; format: functional
# MIA PaCa-2 [7] = assay: Antitumor activity against human MIA PaCa-2 cells xenografted in athymic BALB/c-nu mouse assessed as fold change in nicotinamide level in tumor at 2 mg/kg/day, ip administered five times per week for 4 weeks by LC-MS analysis; format: functional
# MIA PaCa-2 [8] = assay: Antitumor activity against human MIA PaCa-2 cells xenografted in athymic BALB/c-nu mouse assessed as fold change in uracil level in tumor at 10 mg/kg/day, ip administered five times per week for 4 weeks by LC-MS analysis; format: functional
# PANC-1 [9] = assay: Inhibition of autophagy in human PANC-1 cells in DMEM medium assessed as downregulation of LC3 protein expression at 5 to 20 uM measured after 6 hrs by Western blot analysis; format: functional, cell-based; conditions: dose 5-20 µM
# MIA PaCa-2 [10] = assay: Antitumor activity against human MIA PaCa-2 cells xenografted in athymic BALB/c-nu mouse assessed as fold change in N-acetylneuraminic acid level in tumor at 2 mg/kg/day, ip administered five times per week for 4 weeks by LC-MS analysis; format: functional
# PANC-1 [11] = assay: Inhibition of Akt/mTOR signaling pathway in human PANC-1 cells in DMEM media assessed as reduction in AKT phosphorylation at S473 residue at 5 to 20 uM measured after 6 hrs by Western blot analysis; format: cell-based; conditions: dose 5-20 µM
# PANC-1 [12] = assay: Inhibition of autophagy in human PANC-1 cells in nutrient-deprived medium assessed as downregulation of LC3-II protein expression measured after 6 hrs by Western blot analysis; format: functional, cell-based; conditions: dose 5-20 µM
# MIA PaCa-2 [13] = assay: Antitumor activity against human MIA PaCa-2 cells xenografted in athymic BALB/c-nu mouse assessed as fold change in D-ribulose 5-phosphate level in tumor at 2 mg/kg/day, ip administered five times per week for 4 weeks by LC-MS analysis; format: functional
# MIA PaCa-2 [14] = assay: Antitumor activity against human MIA PaCa-2 cells xenografted in athymic BALB/c-nu mouse assessed as fold change in cytidine 5'-monophosphate level in tumor at 2 mg/kg/day, ip administered five times per week for 4 weeks by LC-MS analysis; format: functional
# MIA PaCa-2 [15] = assay: Antitumor activity against human MIA PaCa-2 cells xenografted in athymic BALB/c-nu mouse assessed as reduction in p-mTOR level in tumor at 2 to 10 mg/kg/day, ip administered five times per week for 4 weeks by immunohistochemistry analysis; format: functional, organism-based; conditions: dose 2-10 mg/kg/day
# MIA PaCa-2 [16] = assay: Antitumor activity against human MIA PaCa-2 cells xenografted in athymic BALB/c-nu mouse assessed as fold change in cytidine diphosphate ethanolamine level in tumor at 2 mg/kg/day, ip administered five times per week for 4 weeks by LC-MS analysis; format: functional
# MIA PaCa-2 [17] = assay: Antitumor activity against human MIA PaCa-2 cells xenografted in athymic BALB/c-nu mouse assessed as fold change in cytidine 5'-monophosphate-Neu5Ac level in tumor at 2 mg/kg/day, ip administered five times per week for 4 weeks by LC-MS analysis; format: functional
# MIA PaCa-2 [18] = assay: Antitumor activity against human MIA PaCa-2 cells xenografted in athymic BALB/c-nu mouse assessed as fold change in D-glucuronicacid level in tumor at 10 mg/kg/day, ip administered five times per week for 4 weeks by LC-MS analysis; format: functional
# MIA PaCa-2 [19] = assay: Antimetastatic activity in human MIA PaCa-2 cells in nutrient-rich medium assessed as open wound area at 20 uM measured every 15 mins for 48 hrs by live cell imaging analysis (reference value: 17%); format: functional
# MIA PaCa-2 [20] = assay: Preferential cytotoxicity against human MIA PaCa-2 cells in nutrient-deprived medium assessed as alteration in cell morphology by measuring rupture of cell membrane at 5 uM measured after 24 hrs by acridine orange and ethidium bromide dual fluorescent staining based imaging analysis; format: functional
# MIA PaCa-2 [21] = assay: Preferential cytotoxicity against human MIA PaCa-2 cells in nutrient-deprived medium measured after 24 hrs by WST-8 cell counting analysis; format: functional
# PANC-1 [22] = assay: Preferential cytotoxicity against human PANC-1 cells in nutrient-deprived medium assessed as alteration in cell morphology by measuring leakage of cell components at 5 uM measured after 24 hrs by acridine orange and ethidium bromide dual fluorescent staining based imaging analysis; format: functional
# MIA PaCa-2 [23] = assay: Antitumor activity against human MIA PaCa-2 cells xenografted in athymic BALB/c-nu mouse assessed as fold change in sphinganine level in tumor at 2 mg/kg/day, ip administered five times per week for 4 weeks by LC-MS analysis; format: functional
# MIA PaCa-2 [24] = assay: Antitumor activity against human MIA PaCa-2 cells xenografted in athymic BALB/c-nu mouse assessed as fold change in glycerol 3-phosphate level in tumor at 2 mg/kg/day, ip administered five times per week for 4 weeks by LC-MS analysis; format: functional
# MIA PaCa-2 [25] = assay: Inhibition of autophagy in human MIA PaCa-2 cells in nutrient-deprived medium assessed as downregulation of LC3-I protein expression measured after 6 hrs by Western blot analysis; format: functional, cell-based; conditions: dose 5-20 µM
# MIA PaCa-2 [26] = assay: Antitumor activity against human MIA PaCa-2 cells xenografted in athymic BALB/c-nu mouse assessed as fold change in cytosine level in tumor at 10 mg/kg/day, ip administered five times per week for 4 weeks by LC-MS analysis; format: functional
# PANC-1 [27] = assay: Inhibition of Akt/mTOR signaling pathway in human PANC-1 cells in nutrient-deprived medium assessed as reduction in AKT phosphorylation at S473 residue measured after 6 hrs by Western blot analysis; format: cell-based; conditions: dose 5-20 µM
# PANC-1 [28] = assay: Antimetastatic activity in human PANC-1 cells in DMEM media assessed as inhibition of colony formation at 20 uM incubated for 24 hrs followed by replacement with fresh medium and measured after 10 days by crystal violet staining-based assay relative to control; format: functional
# MIA PaCa-2 [29] = assay: Preferential cytotoxicity against human MIA PaCa-2 cells in nutrient-deprived medium assessed as alteration in cell morphology by measuring cell rounding at 5 uM measured after 24 hrs by acridine orange and ethidium bromide dual fluorescent staining based imaging analysis; format: functional
compound,measurement,setting,value
COc1cc(O)c(C(=O)[C@@H]2CC=C(CCC=C(C)C)C[C@H]2c2ccccc2)c(O)c1,PC50,PANC-1 [1],3.4 µM
same,fold change (FC),MIA PaCa-2 [2],0.31
same,fold change (FC),MIA PaCa-2 [3],0.49
same,fold change (FC),MIA PaCa-2 [4],0.43
same,fold change (FC),MIA PaCa-2 [5],0.48
same,fold change (FC),MIA PaCa-2 [6],0.38
same,fold change (FC),MIA PaCa-2 [7],0.52
same,fold change (FC),MIA PaCa-2 [8],0.09
same,inhibition,PANC-1 [9],inactive
same,fold change (FC),MIA PaCa-2 [10],0.33
same,inhibition,PANC-1 [11],inactive
same,inhibition,PANC-1 [12],Dose-Dependent Effect
same,fold change (FC),MIA PaCa-2 [13],0.22
same,fold change (FC),MIA PaCa-2 [14],0.4
same,Activity,MIA PaCa-2 [15],Active
same,fold change (FC),MIA PaCa-2 [16],0.4
same,fold change (FC),MIA PaCa-2 [17],0.43
same,fold change (FC),MIA PaCa-2 [18],0.68
same,Activity,MIA PaCa-2 [19],66%
same,Activity,MIA PaCa-2 [20],Active
same,PC50,MIA PaCa-2 [21],2.9 µM
same,Activity,PANC-1 [22],Active
same,fold change (FC),MIA PaCa-2 [23],1.87
same,fold change (FC),MIA PaCa-2 [24],0.4
same,inhibition,MIA PaCa-2 [25],Dose-Dependent Effect
same,fold change (FC),MIA PaCa-2 [26],0.44
same,inhibition,PANC-1 [27],Dose-Dependent Effect
same,inhibition at 20 µM,PANC-1 [28],82%
same,Activity,MIA PaCa-2 [29],Active
